Results on four molecules are retold here after publication PMC5590075, “Synthesis, Antimicrobial, and Antioxidant Activities of Chalcogen-Containing Nitrone Derivatives from (R)-citronellal” (Medicines, 2017).

The test system of one assay is S. aureus. Also noted: method as in doi:10.1016/j.lwt.2014.05.036. The conditions noted are these: cited from earlier work.
The test system of the next assay is L. monocytogenes. Also noted: method as in doi:10.1016/j.lwt.2014.05.036. The conditions noted are these: cited from earlier work.
A further assay concerns E. coli. More on the design: method as in doi:10.1016/j.lwt.2014.05.036. The conditions noted are these: cited from earlier work.
A further assay deals with S. Typhimurium. More on the design: method as in doi:10.1016/j.lwt.2014.05.036. The conditions noted are these: cited from earlier work.
The test system of the next assay is S. dysenteriae. More on the design: method as in doi:10.1016/j.lwt.2014.05.036. As to conditions: cited from earlier work.
The subject of another assay is P. fluorescens. Also noted: method as in doi:10.1016/j.lwt.2014.05.036. The conditions noted are these: cited from earlier work.
On the set-up of assay [1]: method as in doi:10.1016/j.foodcont.2011.06.017. The conditions noted are these: cited from earlier work.
Details of assay [2]: method as in doi:10.1016/j.foodcont.2011.06.017. As to conditions: cited from earlier work. This is another data set of the same source.
Details of assay [3]: method as in doi:10.1016/j.foodcont.2011.06.017. As to conditions: cited from earlier work. This is another data set of the same source.
The subject of assay [4] is Staphylococcus aureus ATCC 25923. The assay can be described thus: agar disk diffusion test. It is filed as cell-based. As to conditions: Staphylococcus aureus, ATCC25923; S. aureus, 1.0 × 10^8 CFU.mL^−1; 20 μL compound diluted in DMSO (1:1) per 6 mm disc; streptomycin 10 µg; mean of two repetitions. The text has this: (§1) To evaluate the antimicrobial potential of the synthesized compounds, the following reference strains of bacteria, that are economically important in foods, were employed: Gram-positive Listeria monocytogenes ATCC 7644, Staphylococcus aureus ATCC 25923, and Bacillus cereus ATCC 11778; Gram-negative Salmonella Typhimurium ATCC 14028, Escherichia coli O157: H7 NCTC 12900 and the clinically important Pseudomonas aeruginosa ATCC 15442.
(§2) The antimicrobial activity assay using the disk diffusion test was realized using the methodology that is recommended by the Clinical Laboratory Standards Institute (CLSI). The determination of the minimum inhibitory concentration (MIC) and minimum bactericidal concentration (MBC) was performed using the macro dilution tube method, in accordance with Rota et al., with modifications. Details of these assays are provided in the Supplemental Material. […]
(§3) 2.1. Antimicrobial activity assay using the disk diffusion test
(§4) The disk diffusion test followed the methodology recommended by the Clinical Laboratory Standards Institute CLSI [4]. The inoculum was standardized by standard McFarland to the concentration of 10^8 CFU.mL−1 and spread on the surface of a Petri dish containing Mueller‐Hinton (MH) agar. Then, the paper disc (6 mm) was put on a plate impregnated with 20 μL of the testing compound previously diluted in DMSO (1:1) and incubated at 37 °C for 24 hours. Zone of inhibition ≥20 mm were considered as strong inhibition, <20–12 mm as moderate inhibition, and <12 mm no inhibition. A positive control with streptomycin antibiotic (10 μg) and a negative one, with paper discs impregnated with distilled water, were used […]
(§5) 2.4. Radical Scavenging Activity […]
(§6) The ABTS radical scavenging activity was determined according to the method described by Erel. Different concentrations of compounds 5a–d and 10 (10–500 μ M) were mixed with the ABTS+ solution, and the decrease in the absorbance at 734 nm was recorded.

For assay [5], the system named is Bacillus cereus ATCC 11778. As to the kind of experiment: agar disk diffusion test. It is filed as cell-based. The conditions noted are these: Bacillus cereus, ATCC11778; B. cereus, 1.0 × 10^8 CFU.mL^−1; 20 μL compound diluted in DMSO (1:1) per 6 mm disc; streptomycin 10 µg; mean of two repetitions.
Source text: as §1, §2, §3, §4, §5, §6

Assay [6] deals with Escherichia coli O157: H7 NCTC 12900. As to the kind of experiment: agar disk diffusion test. In kind it is cell-based. As to conditions: Escherichia coli, NCTC12900; E. coli O157:H7, 1.0 × 10^8 CFU.mL^−1; 20 μL compound diluted in DMSO (1:1) per 6 mm disc; streptomycin 10 µg; mean of two repetitions.
Source text: as §1, §2, §3, §4, §5, §6

The subject of assay [7] is Listeria monocytogenes ATCC 7644. As to the kind of experiment: agar disk diffusion test. In kind it is cell-based. As to conditions: Listeria monocytogenes, ATCC7644; L. monocytogenes, 1.0 × 10^8 CFU.mL^−1; 20 μL compound diluted in DMSO (1:1) per 6 mm disc; streptomycin 10 µg; mean of two repetitions.
Source text: as §1, §2, §3, §4, §5, §6

The subject of assay [8] is Salmonella Typhimurium ATCC 14028. As to the kind of experiment: agar disk diffusion test. In kind it is cell-based. The conditions noted are these: Salmonella enterica; S. Typhimurium, 1.0 × 10^8 CFU.mL^−1; 20 μL compound diluted in DMSO (1:1) per 6 mm disc; streptomycin 10 µg; mean of two repetitions.
Source text: as §1, §2, §3, §4, §5, §6

In assay [9] the test system is Pseudomonas aeruginosa ATCC 15442. The assay can be described thus: agar disk diffusion test. As to conditions: Pseudomonas aeruginosa, ATCC15442; P. aeruginosa, 1.0 × 10^8 CFU.mL^−1; 20 μL compound diluted in DMSO (1:1) per 6 mm disc; streptomycin 10 µg; mean of two repetitions. In kind it is cell-based.
Source text: as §1, §2, §3, §4, §5, §6

Structures are written as SMILES. Converted amounts (≈) assume the structure as drawn. Where only a bound is given, the exact number is not on record here.

As for `CC(C)=CCCC(C)(CC=O)Sc1ccc(Cl)cc1` (stereo not drawn) [3-(p-chlorophenyl)thio citronellal], the MIC is recorded as 2.1 mM (≈ 623 µg/mL) in the assay on S. aureus; 2.1 mM (≈ 623 µg/mL) in the assay with L. monocytogenes; 4.2 mM (≈ 1250 µg/mL) in the assay with E. coli; 4.2 mM (≈ 1250 µg/mL) with S. Typhimurium; 4.2 mM (≈ 1250 µg/mL) with S. dysenteriae; 4.2 mM (≈ 1250 µg/mL) in the assay with P. fluorescens.

For `CC(C)=CCC[C@@H](C)C(C=O)[Se]c1ccccc1` (stereo partly drawn) [3b, α-phenylselenocitronellal], the “concentrations with significant reducing power in the FRAP assay” value in [1] was ≥ 500 mM. Moreover, the “activity in the ABTS assay (in words)” value in [2] was “inactive”. The “activity in the DPPH assay (in words)” value in assay [3] was “inactive”.

As to `[H]/N=C(/N)N[C@H]1[C@H](O)[C@@H](O)[C@H](O[C@@H]2O[C@@H](C)[C@](O)(C=O)[C@H]2O[C@@H]2O[C@@H](CO)[C@H](O)[C@@H](O)[C@@H]2NC)[C@@H](N/C(N)=N\[H])[C@@H]1O` [Streptomycin, reference compound], the zone of inhibition at 10 µg/disc in assay [4] was found to be 21 mm; in [5], 26 mm; in assay [6], 24 mm; in assay [7], 21 mm; in assay [8], 18 mm; in assay [9], 13 mm.

As for `CC(C)=CCC[C@@H](C)CC=O` [compound 1, (R)-citronellal], in assay [1] (at the same concentrations (equal and higher than 500 mM)), the “effect in the FRAP assay (in words)” value is “did not present any effect”. Also, the “activity in the ABTS assay (in words)” value in assay [2] is “inactive”. Besides, the “activity in the DPPH assay (in words)” value in assay [3] was “inactive”.
